From ChEMBL document CHEMBL5252612, “A novel selective estrogen receptor degrader induces cell cycle arrest in breast cancer via ERα degradation and the autophagy-lysosome pathway” (Bioorg Med Chem, 2023)
The source made the active and inactive calls. The rule behind the calls is not given here.

Assays:
[1] = test system: MCF7; test: Antitumor activity against human MCF7 cells xenografted in BALB/c nude mouse assessed as reduction in tumor volume at 2 to 4 mg/kg, ip administered every other day by caliper analysis; type: functional, organism-based; details: dose 2-4 mg/kg
[2] = test system: MCF7; test: Induction of cell cycle arrest in human MCF7 cells assessed as proportion of cells at S phase at 1 uM incubated for 24 hrs by flow cytometry (reference value: 27.6%); type: functional
[3] = target: T1, Estrogen receptor (Homo sapiens) (UniProt P03372); test: Induction of ER-alpha degradation in human T47D cells overexpressing ER-alpha assessed as decrease in MYC protein expression at 10 uM incubated for 24 hrs by western blot analysis; type: cell-based
T1 sequence (whole entry): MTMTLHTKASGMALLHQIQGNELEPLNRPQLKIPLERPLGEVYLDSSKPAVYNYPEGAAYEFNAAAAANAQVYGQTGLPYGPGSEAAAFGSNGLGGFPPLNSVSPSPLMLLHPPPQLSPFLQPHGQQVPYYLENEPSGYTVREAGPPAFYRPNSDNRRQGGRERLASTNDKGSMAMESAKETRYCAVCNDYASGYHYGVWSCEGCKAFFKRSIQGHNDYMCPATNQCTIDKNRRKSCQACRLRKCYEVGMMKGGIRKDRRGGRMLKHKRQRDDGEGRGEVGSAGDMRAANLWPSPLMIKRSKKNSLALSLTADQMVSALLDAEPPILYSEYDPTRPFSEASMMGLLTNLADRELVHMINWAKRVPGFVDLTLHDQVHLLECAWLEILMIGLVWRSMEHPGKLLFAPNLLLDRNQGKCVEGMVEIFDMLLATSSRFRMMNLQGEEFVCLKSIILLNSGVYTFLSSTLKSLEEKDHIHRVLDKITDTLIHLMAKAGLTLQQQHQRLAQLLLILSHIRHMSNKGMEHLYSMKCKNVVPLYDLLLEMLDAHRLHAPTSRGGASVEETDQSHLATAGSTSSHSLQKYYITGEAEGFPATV

[4] = test system: MCF7; test: Induction of cell cycle arrest in human MCF7 cells assessed as proportion of cells at S phase at 5 uM incubated for 24 hrs by flow cytometry (reference value: 27.6%); type: functional
[5] = test system: T47D; test: Inhibition of colony formation in human T47D cells at 1 to 5 uM incubated for 14 days by crystal violet staining based analysis; type: functional, cell-based; details: dose 1-5 µM, time 14.0 day
[6] = test system: MCF7; test: Induction of apoptosis and necrosis in human MCF7 cells assessed as live cells at 20 uM incubated for 48 hrs by AnnexinV-FITC/PI staining based flow cytometry (reference value: 92.97%); type: functional
[7] = test system: T47D; test: Induction of cell cycle arrest in human T47D cells assessed as proportion of cells at S phase at 5 uM incubated for 24 hrs by flow cytometry (reference value: 15.3%); type: functional
[8] = test system: MCF7; test: Induction of cell cycle arrest in human MCF7 cells assessed as proportion of cells at G1 phase at 1 uM incubated for 24 hrs by flow cytometry (reference value: 46.3%); type: functional
[9] = target: T1, Estrogen receptor (Homo sapiens); test: Induction of ER-alpha degradation in human T47D cells assessed as decrease in MYC protein expression at 10 uM incubated for 24 hrs by western blot analysis; type: cell-based
[10] = test system: MCF7; test: Antitumor activity against human MCF7 cells xenografted in BALB/c nude mouse assessed as reduction in tumor weight at 2 to 4 mg/kg, ip administered every other day; type: functional, organism-based; details: dose 2-4 mg/kg
[11] = test system: T47D; test: Anticancer activity against ER-alpha positive human T47D cells assessed as reduction in cell viability at 10 uM measured after 48 hrs by CCK8 assay; type: functional, cell-based
[12] = test system: T47D; test: Induction of cell cycle arrest in human T47D cells assessed as proportion of cells at G2 phase at 5 uM incubated for 24 hrs by flow cytometry (reference value: 24.4%); type: functional
[13] = test system: MCF7; test: Induction of apoptosis and necrosis in human MCF7 cells incubated for 48 hrs by AnnexinV-FITC/PI staining based flow cytometry (reference value: 7.03%); type: functional
[14] = test system: T47D; test: Induction of cell cycle arrest in human T47D cells assessed as proportion of cells at G1 phase at 10 uM incubated for 24 hrs by flow cytometry (reference value: 52.6%); type: functional
[15] = Toxicity in BALB/c nude mouse xenografted with human MCF7 cells assessed as liver cell morphological changes at 2 to 4 mg/kg, ip administered every other day by Hematoxylin and eosin staining based analysis; type: organism-based; details: in vivo, dose 2-4 mg/kg
[16] = test system: T47D; test: Induction of cell cycle arrest in human T47D cells overexpressing MYC assessed as proportion of cells at G1 phase at 10 uM incubated for 24 hrs by flow cytometry (reference value: 22.1%); type: functional
[17] = test system: T47D; test: Induction of cell cycle arrest in human T47D cells assessed as proportion of cells at S phase at 10 uM incubated for 24 hrs in presence of autophagy inhibitor, 3-MA by flow cytometry (reference value: 21.4%); type: functional
[18] = test system: MCF7; test: Antitumor activity against human MCF7 cells xenografted in BALB/c nude mouse assessed as reduction in Ki67 expression in tumor at 2 to 4 mg/kg, ip administered every other day by immunohistochemistry; type: functional, organism-based; details: dose 2-4 mg/kg
[19] = test system: T47D; test: Induction of autophagy in human T47D cells assessed as upregulation of CTSD protein expression at 10 uM incubated for 24 hrs by western blot analysis; type: functional, cell-based
[20] = test system: LCC2; test: Inhibition of colony formation in tamoxifen-resistant human LCC2 cells at 1 uM incubated for 14 days by crystal violet staining based analysis; type: functional, cell-based; details: time 14.0 day
[21] = test system: T47D; test: Induction of apoptosis and necrosis in human T47D cells assessed as live cells at 20 uM incubated for 48 hrs by AnnexinV-FITC/PI staining based flow cytometry (reference value: 96.26%); type: functional
[22] = test system: MCF7; test: Induction of apoptosis and necrosis in human MCF7 cells assessed as live cells at 10 uM incubated for 48 hrs by AnnexinV-FITC/PI staining based flow cytometry (reference value: 92.97%); type: functional
[23] = test system: T47D; test: Induction of autophagy in human T47D cells assessed as decrease in p62 protein expression at 5 to 10 uM incubated for 24 hrs by western blot analysis; type: functional, cell-based; details: dose 5-10 µM
[24] = Induction of cell cycle arrest in tamoxifen-resistant human LCC2 cells assessed as proportion of cells at G2 phase at 5 uM by flow cytometry (reference value: 23.7%); type: functional
[25] = Induction of cell cycle arrest in tamoxifen-resistant human LCC2 cells assessed as proportion of cells at G2 phase at 1 uM by flow cytometry (reference value: 23.7%); type: functional
[26] = test system: T47D; test: Induction of apoptosis in human T47D cells at 10 uM incubated for 48 hrs by TUNEL assay; type: functional, cell-based
[27] = test system: T47D; test: Induction of autophagy in human T47D cells overexpressing ESR1 assessed as increase in lysosome number by LysoTracker dye based confocal microscopy; type: functional, cell-based
[28] = target: T1, Estrogen receptor (Homo sapiens); test: Induction of ER-alpha degradation in human T47D cells assessed as reduction in ER-alpha stability at 10 uM incubated for 3 to 9 hrs in presence of protein synthesis inhibitor, CHX by CHX chase assay based western blot analysis; type: cell-based; details: time 3-9 hrs
[29] = test system: T47D; test: Induction of cell cycle arrest in human T47D cells assessed as proportion of cells at S phase at 10 uM incubated for 24 hrs by flow cytometry (reference value: 27.7%); type: functional

## COc1ccc(N(CC(F)(F)F)S(=O)(=O)C2CC3OC2C(c2ccc(OCCN4CCCC4)cc2)=C3c2ccc(O)cc2)cc1 (centres undefined)
[1]
  Activity: Active
[2]
  Activity: 15.7%
[3]
  Activity: inactive
[4]
  Activity: 15%
[5]
  inhibition: Active
[6]
  Activity: 53.55%
[7]
  Activity: 9.6%
[8]
  Activity: 63.7%
[9]
  Activity: Active
[10]
  Activity: Active
[11]
  Activity: Active
[12]
  Activity: 16.2%
[13]
  Activity: 46.45%
[14]
  Activity: 71.6%
[15]
  Activity: Non-Toxic
[16]
  Activity: 20.6%
[17]
  Activity: 14.5%
[18]
  Activity: Active
[19]
  Activity: Active
[20]
  inhibition: Active
[21]
  Activity: 78.57%
[22]
  Activity: 83.71%
[23]
  Activity: Active
[24]
  Activity: 14.5%
[25]
  Activity: 16.6%
[26]
  Activity: Active
[27]
  Activity: Active
[28]
  Activity: Active
[29]
  Activity: 10.2%
